Laboratory results from ChEMBL document CHEMBL5247592, “Discovery of novel VEGFR-2-PROTAC degraders based on the localization of lysine residues via recruiting VHL for the treatment of gastric cancer” (Eur J Med Chem, 2022).
pEC50, pIC50: −log10 of the molar value.

Tests used:
[1] = test system: HGC-27; assay: Antiproliferative activity against human HGC-27 cells assessed as inhibition of cell growth incubated for 72 hrs by MTT assay; assay type: functional, cell-based; conditions: HGC-27, 72 h
[2] = Cytotoxicity against human GES1 cells assessed as inhibition of cell growth incubated for 72 hrs by MTT assay; assay type: toxicity, cell-based
[3] = molecular target: T1, von Hippel-Lindau disease tumor suppressor/Vascular endothelial growth factor receptor 2 (Homo sapiens, UniProt P35968+P40337); assay: PROTAC activity at VHL/VEGFR2 in human HGC-27 cells assessed as reduction in VEGFR2 protein level by measuring maximal efficacy incubated for 24 hrs by Western blot analysis relative to control; assay type: cell-based
Target sequence in this assay (P35968 20-1356 limits assumed): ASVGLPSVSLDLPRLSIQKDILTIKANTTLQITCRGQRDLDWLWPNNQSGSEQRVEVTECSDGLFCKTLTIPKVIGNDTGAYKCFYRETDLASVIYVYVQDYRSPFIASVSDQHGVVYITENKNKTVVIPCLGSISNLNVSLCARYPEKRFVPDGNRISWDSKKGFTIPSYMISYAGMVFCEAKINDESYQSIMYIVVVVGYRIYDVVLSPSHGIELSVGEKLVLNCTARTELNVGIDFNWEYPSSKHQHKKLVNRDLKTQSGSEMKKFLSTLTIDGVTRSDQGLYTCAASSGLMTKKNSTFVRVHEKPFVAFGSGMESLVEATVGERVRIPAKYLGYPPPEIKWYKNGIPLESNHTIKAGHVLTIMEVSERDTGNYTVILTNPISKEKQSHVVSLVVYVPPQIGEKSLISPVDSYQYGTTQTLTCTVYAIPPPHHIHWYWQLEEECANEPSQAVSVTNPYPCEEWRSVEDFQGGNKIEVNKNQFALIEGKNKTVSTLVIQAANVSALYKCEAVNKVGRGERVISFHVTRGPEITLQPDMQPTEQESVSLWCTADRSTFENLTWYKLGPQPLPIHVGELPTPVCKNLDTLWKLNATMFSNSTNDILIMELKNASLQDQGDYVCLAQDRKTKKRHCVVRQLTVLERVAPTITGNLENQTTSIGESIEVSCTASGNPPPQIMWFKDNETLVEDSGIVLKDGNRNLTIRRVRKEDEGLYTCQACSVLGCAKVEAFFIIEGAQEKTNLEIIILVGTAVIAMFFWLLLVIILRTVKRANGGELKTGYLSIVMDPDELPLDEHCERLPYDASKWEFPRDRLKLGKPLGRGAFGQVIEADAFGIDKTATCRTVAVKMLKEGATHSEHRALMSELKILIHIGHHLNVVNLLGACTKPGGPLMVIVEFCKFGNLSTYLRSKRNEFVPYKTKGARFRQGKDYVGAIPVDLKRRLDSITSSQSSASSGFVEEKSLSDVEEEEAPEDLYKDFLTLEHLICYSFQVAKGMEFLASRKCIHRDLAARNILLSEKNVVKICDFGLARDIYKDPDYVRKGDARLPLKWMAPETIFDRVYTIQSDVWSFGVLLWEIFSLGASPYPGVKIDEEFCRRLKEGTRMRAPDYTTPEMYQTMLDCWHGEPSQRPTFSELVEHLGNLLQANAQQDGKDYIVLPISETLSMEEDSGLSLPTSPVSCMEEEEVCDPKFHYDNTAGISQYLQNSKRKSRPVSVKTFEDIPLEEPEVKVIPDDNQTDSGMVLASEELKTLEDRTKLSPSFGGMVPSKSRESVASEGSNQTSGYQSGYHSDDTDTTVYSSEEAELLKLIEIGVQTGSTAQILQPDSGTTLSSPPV
Target sequence in this assay (P40337 whole entry partner): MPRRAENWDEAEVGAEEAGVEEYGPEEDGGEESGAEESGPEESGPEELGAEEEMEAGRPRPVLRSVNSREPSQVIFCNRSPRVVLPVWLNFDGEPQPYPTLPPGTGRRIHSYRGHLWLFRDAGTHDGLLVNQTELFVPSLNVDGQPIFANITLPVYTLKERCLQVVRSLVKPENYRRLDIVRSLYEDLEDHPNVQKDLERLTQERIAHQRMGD

[4] = Cytotoxicity against HEK293T cells assessed as inhibition of cell growth incubated for 72 hrs by MTT assay; assay type: toxicity, cell-based, HEK-293T; conditions: human
[5] = Cytotoxicity against HUVEC cells assessed as inhibition of cell growth incubated for 72 hrs by MTT assay; assay type: toxicity, cell-based; conditions: human
[6] = molecular target: T1, von Hippel-Lindau disease tumor suppressor/Vascular endothelial growth factor receptor 2; assay: PROTAC activity at VHL/VEGFR2 in human HGC-27 cells assessed as reduction in VEGFR2 protein level incubated for 24 hrs by Western blot analysis; assay type: cell-based
Target sequence in this assay (P35968 whole entry): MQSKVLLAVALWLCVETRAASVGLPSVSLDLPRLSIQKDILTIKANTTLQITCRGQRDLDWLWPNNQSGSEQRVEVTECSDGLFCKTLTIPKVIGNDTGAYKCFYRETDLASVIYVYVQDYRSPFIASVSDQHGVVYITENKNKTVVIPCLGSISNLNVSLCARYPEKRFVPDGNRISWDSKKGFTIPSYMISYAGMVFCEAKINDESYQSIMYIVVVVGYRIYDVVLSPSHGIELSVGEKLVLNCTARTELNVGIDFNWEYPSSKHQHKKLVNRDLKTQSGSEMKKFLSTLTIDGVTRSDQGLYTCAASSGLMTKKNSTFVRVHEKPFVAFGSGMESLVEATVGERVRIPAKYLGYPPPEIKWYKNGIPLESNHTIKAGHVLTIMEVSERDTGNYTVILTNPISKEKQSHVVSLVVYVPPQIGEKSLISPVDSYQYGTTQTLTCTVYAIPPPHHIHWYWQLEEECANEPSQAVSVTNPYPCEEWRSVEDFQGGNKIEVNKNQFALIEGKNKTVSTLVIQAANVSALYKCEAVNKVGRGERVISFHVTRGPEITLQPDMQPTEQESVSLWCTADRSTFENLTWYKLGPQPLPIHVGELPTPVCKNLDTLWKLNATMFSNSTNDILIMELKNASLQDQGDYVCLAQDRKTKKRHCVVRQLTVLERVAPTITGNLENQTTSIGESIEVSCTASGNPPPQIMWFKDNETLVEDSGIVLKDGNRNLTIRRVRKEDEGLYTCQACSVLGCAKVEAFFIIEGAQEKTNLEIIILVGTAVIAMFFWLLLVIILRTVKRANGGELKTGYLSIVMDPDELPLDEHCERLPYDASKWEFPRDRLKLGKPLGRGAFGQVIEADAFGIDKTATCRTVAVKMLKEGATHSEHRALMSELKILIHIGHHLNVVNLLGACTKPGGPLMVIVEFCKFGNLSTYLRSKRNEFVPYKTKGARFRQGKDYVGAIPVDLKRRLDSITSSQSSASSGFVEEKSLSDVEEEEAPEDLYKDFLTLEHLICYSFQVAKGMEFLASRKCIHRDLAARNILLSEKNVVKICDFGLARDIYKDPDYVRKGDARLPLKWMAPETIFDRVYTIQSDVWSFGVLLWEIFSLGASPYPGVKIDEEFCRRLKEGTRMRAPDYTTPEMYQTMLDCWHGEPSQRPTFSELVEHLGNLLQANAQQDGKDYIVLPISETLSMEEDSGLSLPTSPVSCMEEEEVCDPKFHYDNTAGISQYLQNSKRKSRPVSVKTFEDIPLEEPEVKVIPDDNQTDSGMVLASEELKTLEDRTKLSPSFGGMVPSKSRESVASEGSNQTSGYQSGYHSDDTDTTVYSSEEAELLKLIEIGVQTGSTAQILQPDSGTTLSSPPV
Target sequence in this assay (P40337 whole entry): as the sequence (P40337 whole entry partner) above

[7] = molecular target: Vascular endothelial growth factor receptor 2 (Homo sapiens, UniProt P35968); assay: Inhibition of VEGFR2 (unknown origin) at 1 uM by caliper mobility shift assay relative to control
Vascular endothelial growth factor receptor 2, sequence (P35968 whole entry): as the sequence (P35968 whole entry) above

SMILES	pIC50 [1]	IC50 at 72 h [2]	Emax [3]	IC50 at 72 h [4]	IC50 at 72 h [5]	pEC50 [6]	inhibition [7]
Cc1ccc(NC(=O)Cn2cc(-c3ccc4c(NC(=O)c5ccc(N6CCN(CCCCCCC(=O)N[C@H](C(=O)N7C[C@H](O)C[C@H]7C(=O)NCc7ccc(-c8scnc8C)cc7)C(C)(C)C)CC6)cc5)n[nH]c4c3)cn2)cc1C(F)(F)F	5.26	22.4 µM	38.2%	38.6 µM	> 50 µM	< 5.48	–
Cc1ccc(NC(=O)Cn2cc(-c3ccc4c(NC(=O)CCCCCCCCCCC(=O)N[C@@H](C(=O)N5C[C@H](O)C[C@H]5C(=O)NCc5ccc(-c6scnc6C)cc5)C(C)(C)C)n[nH]c4c3)cn2)cc1C(F)(F)F	< 4.30	> 50 µM	–	> 100 µM	> 50 µM	–	60.4%
Cc1ccc(NC(=O)Cn2cc(-c3ccc4c(NC(=O)c5ccc(NC(=O)CCCCC(=O)N6CCN(CCCCCCC(=O)N[C@H](C(=O)N7C[C@H](O)C[C@H]7C(=O)NCc7ccc(-c8scnc8C)cc7)C(C)(C)C)CC6)cc5)n[nH]c4c3)cn2)cc1C(F)(F)F	4.69	51.4 µM	31%	24.1 µM	29.6 µM	< 5.48	–
Cc1ccc(NC(=O)Cn2cc(-c3ccc4c(NC(=O)c5ccc(NC(=O)CCCCC(=O)N6CCN(CCCC(=O)N[C@H](C(=O)N7C[C@H](O)C[C@H]7C(=O)NCc7ccc(-c8scnc8C)cc7)C(C)(C)C)CC6)cc5)n[nH]c4c3)cn2)cc1C(F)(F)F	4.51	25.4 µM	–	38.2 µM	10.9 µM	–	–
Cc1ccc(NC(=O)Cn2cc(-c3ccc4c(NC(=O)c5ccc(N)cc5)nn(C(=O)CCCCCCCCC(=O)N[C@H](C(=O)N5C[C@H](O)C[C@H]5C(=O)NCc5ccc(-c6scnc6C)cc5)C(C)(C)C)c4c3)cn2)cc1C(F)(F)F	4.92	3.36 µM	–	44.9 µM	5.5 µM	< 5.48	–
Cc1ccc(NC(=O)Cn2cc(-c3ccc4c(NC(=O)c5ccc(NC(=O)CCCCCC(=O)N[C@H](C(=O)N6C[C@H](O)C[C@H]6C(=O)NCc6ccc(-c7scnc7C)cc6)C(C)(C)C)cc5)n[nH]c4c3)cn2)cc1C(F)(F)F	5.14	31.3 µM	–	> 100 µM	> 50 µM	< 5.48	–
Cc1ccc(NC(=O)Cn2cc(-c3ccc4c(NC(=O)c5ccc(NC(=O)CCCCCCCCCC(=O)N[C@H](C(=O)N6C[C@H](O)C[C@H]6C(=O)NCc6ccc(-c7scnc7C)cc6)C(C)(C)C)cc5)n[nH]c4c3)cn2)cc1C(F)(F)F	4.26	12 µM	–	> 100 µM	> 50 µM	–	–
Cc1ccc(NC(=O)Cn2cc(-c3ccc4c(NC(=O)c5ccc(N6CCN(C(=O)NCCCCCCC(=O)N[C@H](C(=O)N7C[C@H](O)C[C@H]7C(=O)NCc7ccc(-c8scnc8C)cc7)C(C)(C)C)CC6)cc5)n[nH]c4c3)cn2)cc1C(F)(F)F	< 4.30	> 100 µM	–	> 100 µM	> 100 µM	–	–
Cc1ccc(NC(=O)Cn2cc(-c3ccc4c(NC(=O)c5ccc(NC(=O)CCCCCCCC(=O)N[C@H](C(=O)N6C[C@H](O)C[C@H]6C(=O)NCc6ccc(-c7scnc7C)cc6)C(C)(C)C)cc5)n[nH]c4c3)cn2)cc1C(F)(F)F	4.97	10.9 µM	13.5%	> 100 µM	> 50 µM	< 5.48	–
Cc1ccc(NC(=O)Cn2cc(-c3ccc4c(NC(=O)c5ccc(NC(=O)CCC(=O)N[C@H](C(=O)N6C[C@H](O)C[C@H]6C(=O)NCc6ccc(-c7scnc7C)cc6)C(C)(C)C)cc5)n[nH]c4c3)cn2)cc1C(F)(F)F	< 4.30	47.4 µM	–	48.2 µM	28.2 µM	–	–
Cc1ccc(NC(=O)Cn2cc(-c3ccc4c(NC(=O)c5ccc(N6CCN(C(=O)NCCCCC(=O)N[C@H](C(=O)N7C[C@H](O)C[C@H]7C(=O)NCc7ccc(-c8scnc8C)cc7)C(C)(C)C)CC6)cc5)n[nH]c4c3)cn2)cc1C(F)(F)F	< 4.30	> 100 µM	17.3%	> 100 µM	> 100 µM	< 5.48	–
Cc1ccc(NC(=O)Cn2cc(-c3ccc4c(NC(=O)c5ccc(N6CCN(CCCCCCCC(=O)N[C@H](C(=O)N7C[C@H](O)C[C@H]7C(=O)NCc7ccc(-c8scnc8C)cc7)C(C)(C)C)CC6)cc5)n[nH]c4c3)cn2)cc1C(F)(F)F	4.65	> 100 µM	–	> 100 µM	> 50 µM	< 5.48	–
Cc1ccc(NC(=O)Cn2cc(-c3ccc4c(NC(=O)c5ccc(NC(=O)CCCCCCCCC(=O)N[C@H](C(=O)N6C[C@@H](O)C[C@H]6C(=O)NCc6ccc(-c7scnc7C)cc6)C(C)(C)C)cc5)n[nH]c4c3)cn2)cc1C(F)(F)F	5.68	5.13 µM	–	> 100 µM	12.2 µM	< 5.48	–
Cc1ccc(NC(=O)Cn2cc(-c3ccc4c(NC(=O)c5ccc(NC(=O)CCCCC(=O)N6CCN(CCCCC(=O)N[C@H](C(=O)N7C[C@H](O)C[C@H]7C(=O)NCc7ccc(-c8scnc8C)cc7)C(C)(C)C)CC6)cc5)n[nH]c4c3)cn2)cc1C(F)(F)F	4.62	23.1 µM	38.5%	38.7 µM	9.36 µM	6.19	–
Cc1ccc(NC(=O)Cn2cc(-c3ccc4c(NC(=O)c5ccc(N6CCN(C(=O)NCCCCCCCCC(=O)N[C@H](C(=O)N7C[C@H](O)C[C@H]7C(=O)NCc7ccc(-c8scnc8C)cc7)C(C)(C)C)CC6)cc5)n[nH]c4c3)cn2)cc1C(F)(F)F	< 4.30	> 100 µM	–	> 100 µM	> 100 µM	–	–
Cc1ccc(NC(=O)Cn2cc(-c3ccc4c(NC(=O)c5ccc(NC(=O)CCCCC(=O)N6CCN(CCCCCCCC(=O)N[C@H](C(=O)N7C[C@H](O)C[C@H]7C(=O)NCc7ccc(-c8scnc8C)cc7)C(C)(C)C)CC6)cc5)n[nH]c4c3)cn2)cc1C(F)(F)F	4.35	47.9 µM	–	31.9 µM	25 µM	–	–
CNC(=O)c1cc(Oc2ccc(NC(=O)Nc3ccc(Cl)c(C(F)(F)F)c3)cc2)ccn1 [SORAFENIB]	5.29	9.47 µM	–	6.38 µM	9.66 µM	–	–
Cc1ccc(NC(=O)Cn2cc(-c3ccc4c(NC(=O)c5ccc(N6CCN(CCCCC(=O)N[C@H](C(=O)N7C[C@H](O)C[C@H]7C(=O)NCc7ccc(-c8scnc8C)cc7)C(C)(C)C)CC6)cc5)n[nH]c4c3)cn2)cc1C(F)(F)F	< 4.30	60.3 µM	8.7%	> 100 µM	> 50 µM	< 5.48	–
Cc1ccc(NC(=O)Cn2cc(-c3ccc4c(NC(=O)c5ccc(NC(=O)CCCCC(=O)N6CCN(CCCCCC(=O)N[C@H](C(=O)N7C[C@H](O)C[C@H]7C(=O)NCc7ccc(-c8scnc8C)cc7)C(C)(C)C)CC6)cc5)n[nH]c4c3)cn2)cc1C(F)(F)F	4.62	26.8 µM	–	> 100 µM	> 50 µM	–	–
Cc1ccc(NC(=O)Cn2cc(-c3ccc4c(NC(=O)c5ccc(N)cc5)nn(C(=O)CCCCCCCCCCC(=O)N[C@H](C(=O)N5C[C@H](O)C[C@H]5C(=O)NCc5ccc(-c6scnc6C)cc5)C(C)(C)C)c4c3)cn2)cc1C(F)(F)F	5.84	49.7 µM	81.7%	25.9 µM	34.6 µM	6.49	96.3%
Cc1ccc(NC(=O)Cn2cc(-c3ccc4c(NC(=O)c5ccc(N6CCN(C(=O)NCCCCCCCCCCC(=O)N[C@H](C(=O)N7C[C@H](O)C[C@H]7C(=O)NCc7ccc(-c8scnc8C)cc7)C(C)(C)C)CC6)cc5)n[nH]c4c3)cn2)cc1C(F)(F)F	< 4.30	> 100 µM	–	> 100 µM	> 100 µM	–	–
Cc1ccc(NC(=O)Cn2cc(-c3ccc4c(NC(=O)c5ccc(N6CCN(CCCCCC(=O)N[C@H](C(=O)N7C[C@H](O)C[C@H]7C(=O)NCc7ccc(-c8scnc8C)cc7)C(C)(C)C)CC6)cc5)n[nH]c4c3)cn2)cc1C(F)(F)F	< 4.30	> 100 µM	–	43.8 µM	> 50 µM	–	–
